Experiments:
[1] = tested on: ovarian (MDAH2774) cancer cells; assay: Protein transfection efficiency by flow cytometry; type: cell-based, human; conditions: transfected using HEPES buffer (20-30 mM)
Protocol: FIG. 1 depicts the method of protein transfection in its simplest form: (A) proteins of interest and a protein transfection composition, such as HEPES buffer, are mixed and incubated for about 15 min to about 30 min (“the first incubation time”) to form a mixture. (B) Cells to be transfected are cultured with a first cultured medium comprising at least about 10% fetal bovine serum for about 24 hours, followed by the replacement of the first cultured medium with a minimal essential medium. (C) The mixture in step (A) is added to the cells in minimal essential medium in Step (B) and incubated at 37° C. for about 4 to about 24 hours (“the second incubation time”). (D) The protein transfection efficiency can be analyzed using various methods, such as immunofluorescent staining and flow cytometry. Flow cytometry: After protein transfection was completed, the cells in the culture dish were washed with PBS, trypsinized and pelleted. The cells were mixed with Fixation/Permeabilization (eBioscience, Inc., San Diego, Calif., USA) working solution and incubated at 4° C. for 30 min to 24 h. […] Cells were suspended in 1×PBS and analyzed by flow cytometry (BD Biosciences, Qume Drive San Jose, Calif., USA). […] The protein transfection efficiency can be analyzed using immunofluorescent staining or flow cytometry (Panel D). […]

[2] = tested on: human ovarian cancer cells (MDAH2774); assay: Protein transfection, immunofluorescent staining / confocal microscopy; type: cell-based; conditions: transfected using 20-30 mM HEPES buffer
Protocol: Immunofluorescent staining procedure: After protein transfection is completed, the cells in the culture dish were washed three times with phosphate buffered saline (PBS) and fixed with 4% paraformaldehyde for 20 min. The cells were washed again with PBS, perforated with 0.1% Triton X-100 for 5 min, and blocked with 10% BSA for 30 min. For Alexa Fluor 488 anti-mouse IgGs, cells were stained with DAPI for 10 min. For B23, histone 1 or GAPDH antibody transfection, cells were stained with Alexa Fluor 488 or 546 anti-mouse IgG antibodies for 30 min and then stained with DAPI. For rhSTIP1 proteins or Flag-Rev peptides transfection, cells were stained with anti-v5 or anti-flag antibodies, respectively, and then stained with Alexa Fluor 488 anti-mouse IgG and DAPI. All images were detected by confocal microscopes (Leica, Wetzlar, Germany). The fluorescent signals were analyzed and quantified by Q-Win software (Leica, Wetzlar, Germany).
FIG. 1 schematically illustrates the protein transfection procedure. Briefly, the protein of interest and a protein transfection composition, such as HEPES buffer, were mixed and incubated for about 15 min to about 30 min to form a mixture (Panel A). Cells to be transfected were replaced in a minimal essential medium (Panel B). The mixture in Panel A was added to the cells in Panel B and incubated at 37° C. for about 4 to about 24 hours (Panel C). The protein transfection efficiency can be analyzed using immunofluorescent staining or flow cytometry (Panel D).
An in vitro evaluation of the optimal protein transfection condition was performed. According to the steps in FIG. 1. rhSTIP1 was incubated with HEPES buffers of different concentrations (5 or 20 mM) or Opti-MEM (control) at room temperature for about 15 minutes to form the protein mixtures to transfect human ovarian cancer cells. The mixtures were added to the cell culture dish comprising Opti-MEM and incubated at 37° C. for about 4 to about 24 hours.
Different amounts of Alexa Fluor® 488 anti-mouse IgG (0, 2, 4, 8, or 16 μg) were incubated with 20 mM HEPES buffer and mixed with ovarian (MDAH2774) cancer cells in Opti-MEM.
Alexa Fluor 488 anti-mouse IgG antibodies were mixed with 20 mM HEPES to form a mixture. […] Protein transfection efficiency was assessed using confocal fluorescent microscope.
The following proteins were incubated with Opti-MEM (control group) or 20-30 mM HEPES buffer to transfect ovarian cancer cells (MDAH2774 or MOSEC) or endometrial cancer cells: Alexa Fluor 488-conjugated, anti-mouse IgG antibody (about 150 kDa), anti-B23 antibody, anti-histone 1 antibody, anti-STIP1 antibody, rhSTIP1 protein (62.6 kDa), Flag-Rev peptide (<5 kDa) and FITC-Rev peptide (<5 kDa). […] Protein transfection efficiency was assessed by staining the transfected cancer cells with Alexa Fluor 488 or 594 anti-mouse IgG antibodies (for Alexa Fluor 488-conjugated anti-mouse IgG antibody, anti-B23 antibody, anti-histone 1 antibody, anti-STIP1 antibody), v5 antibody (for rhSTIP1), or anti-Flag antibody (for Flag-Rev peptide), and fluorescent signals were analyzed with confocal microscopy.
The protein transfection efficiency of HEPES was compared to other commercial reagents, such as PULsin™, ProteoJuice™, Pro-Ject™, Xfect™, and BioPORTER®. […] The transfected ovarian cancer cells were stained with Alexa Fluor 488 anti-mouse IgG antibodies and protein transfection efficiency was assessed by confocal fluorescent microscopy.

## rhSTIP1: v5-tagged recombinant human STIP1 protein (BiP-STIP1-V5-His), 62.6 kDa
[1]
  transfection efficiency: signal detected in % of the ovarian cancer cells: 99.6%
[2]
  fluorescent signal of transfected protein (confocal microscopy): detected

— patent publication US20180221487A1, “NOVEL PROTEIN TRANSFECTION COMPOSITIONS AND USES THEREOF” (Chang Gung Memorial Hospital, Linkou, priority 2017, published 2018)
